Test results taken from PubChem BioAssay AID1159565 (GlaxoSmithKline (GSK), 2015).
Activity calls are given as the source filed them. No rule for the calls is given here.

Test system: T. cruzi-infected H9C2 cardiomyocytes, high-content imaging
Assay: intracellular T. cruzi amastigote inhibition, imaging, H9C2 host cardiomyocytes, host toxicity (AID 1159565);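 also: infected cells incubated 72 h after plating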
[1] = measured here: H9C2 host cell toxicity
[2] = measured here: amastigotes per cell

| Structure (SMILES) | IC50 | IC50 [1] [µM] | IC50 [2] [µM] |
| --- | --- | --- | --- |
| O=C(NCCc1nc(-c2ccc(F)c(F)c2)n[nH]1)C1CCCCC1 | 2.5 µM | > 50 | 1.6 |
| CNc1cc(C)nc(C2CN(C(=O)c3n[nH]c4ccccc34)CCO2)c1 (centres undefined) | 2.5 µM | > 50 | 0.79 |
| COc1cc(OC)cc(C(=O)N[C@@H](CC(C)C)C(=O)NC2(C#N)CC2)c1 | > 50 µM (inactive) | > 50 | > 50 |
| COc1ccccc1-n1c(SCC(=O)Nc2ccc3c(c2)OCO3)nc2c(c1=O)SCC2 | 16 µM | > 50 | 7.9 |
| O=c1ccn(-c2ccc([N+](=O)[O-])cc2Cl)c2ccc(F)cc12 | 4 µM | > 50 | 1.3 |
| Cc1nn(-c2nc(N)nc(-c3ccccn3)n2)c(C)c1Cc1ccccc1 | 3.2 µM | 20 | 2 |
| COc1ccc(C2C3CCCCC3(O)CCN2CC(=O)Nc2ccc(Cl)cc2Cl)cc1 (centres undefined) | 1.3 µM | 20 | 0.79 |
| CCc1ccc2nc(NC(=O)c3cc(N4CCOCC4)ccn3)sc2c1 | 0.79 µM | 40 | 0.5 |
| CC(C)(C)C(=O)Nc1cc(C2CC2)nn1-c1nc2c(c(=O)[nH]1)CCCC2 | 0.5 µM | 2 | 0.13 |
| Cc1cc(C)cc(NS(=O)(=O)c2cc(-c3cc(C)[nH]n3)ccc2C)c1 | 1.6 µM | 32 | 1.3 |
| Cn1cncc1CN1CCC2(CC1)COC(Cc1ccccc1)C2 (centres undefined) | 0.5 µM | > 50 | 0.32 |
| N#Cc1cccc(Cc2cc(Nc3cc(C4CC4)[nH]n3)nc(N3CC[C@H]3C(N)=O)n2)c1 | 4 µM | 0.004 | 1 |
| COc1ccc(C2=NCC(CSc3nnc(-c4ccc5c(c4)OCO5)o3)S2)cc1 (centres undefined) | 0.5 µM | > 50 | 0.32 |
| O=C(c1cccc(Nc2ncc(-c3ccc4c(c3)OCO4)cn2)c1)N1CCOCC1 | 1.3 µM | 6.3 | 0.79 |
| Cc1cccc(Nc2nc(-c3ccccn3)cs2)n1 | 1 µM | 0.63 | 0.79 |
| CN(CCOc1ccc(Cl)cc1)Cc1nc(N)nc(N(C)C)n1 | 10 µM | > 50 | 7.9 |
| CN1CCCN(C(=O)c2ccc(N3CCCC3)cc2Cl)CC1 | 1 µM | > 50 | 0.63 |
| CCCN(Cc1ccc(OC)c(OC)c1)Cc1cc(=O)c2c(C)cc(C)cc2[nH]1 | 2 µM | > 50 | 0.5 |
| CNc1cc(Cn2c(C(=O)c3cc(C)cc(Cl)c3)c(C(C)C)c(=O)[nH]c2=O)ccn1 | 0.02 µM | > 50 | 0.02 |
| CCCC(=O)N(Cc1ccccn1)c1nc2ccccc2s1 | 0.1 µM | > 50 | 0.079 |
| Cc1ccc(S(=O)(=O)Nc2ccc(CN3CCN(C(=O)c4cccc(C)c4)CC3)cc2)cc1 | 0.32 µM | > 50 | 0.32 |
| O=c1[nH]c(NCCCNCc2cc(Br)cc(Br)c2)nc2ccsc12 | 0.63 µM | 25 | 0.4 |
| Cc1nn(-c2nc3ccccc3s2)c2c1C(c1ccc(OCC(N)=O)cc1)SCC(=O)N2 (centres undefined) | > 50 µM (inactive) | > 50 | > 50 |
| COc1ccc2ncc(Cl)c(CCN3CC[C@@H](NCc4cc5c(cn4)OCS5)[C@H](O)C3)c2n1 | 0.079 µM | 25 | 0.063 |
| CC(c1cc(Cl)cc(Cl)c1)N(C)c1ncc2c(N)nc(N)nc2n1 (centres undefined) | 0.002 µM | 7.9 | 0.001 |
| O=c1ccc2ccc(F)c3c2n1C[C@H]3CN1CCN(CC(O)c2cc3c(cn2)OCS3)CC1 (some centres undefined) | 0.63 µM | > 50 | 0.32 |
| CC(Cn1ccnc1)NC(=O)COc1ccc(Cl)c(Cl)c1 (centres undefined) | 0.5 µM | > 50 | 0.4 |
| CC(C)c1sc(Cl)nc1C(=O)NCCc1nc(C(=O)Nc2ccc3c(c2)OCO3)cs1 | 1 µM | > 50 | 0.63 |
